Assay results reported in ChEMBL document CHEMBL1201862, “PubChem BioAssay data set” (2004).
Activity calls are given as the source filed them.

Columns and labels:
[1] = target: Induced myeloid leukemia cell differentiation protein Mcl-1 (Homo sapiens, UniProt Q07820); format: functional
[2] = target: Voltage-dependent T-type calcium channel subunit alpha-1H (Homo sapiens, UniProt O95180); format: functional;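 note: channel activity triggered by adding a high calcium stimulation buffer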
Genome polyprotein = Genome polyprotein (dengue virus type 2, UniProt P29990); experiment: flavivirus cap methylation enzyme inhibition – biochemical, confirmation dose response, primary screen (AID 588689); format: functional
cells [3] = format: functional, cell-based
cells [4] = format: functional, cell-based; remark: listed apart in the source
[5] = target: T1, High affinity choline transporter 1 (Homo sapiens, UniProt Q9GZV3); experiment: human choline transporter blockers, potency – cell-based, 5-point CRC, membrane potential dye, dose response (AID 504840); format: functional
T1 sequence (Q9GZV3 whole entry): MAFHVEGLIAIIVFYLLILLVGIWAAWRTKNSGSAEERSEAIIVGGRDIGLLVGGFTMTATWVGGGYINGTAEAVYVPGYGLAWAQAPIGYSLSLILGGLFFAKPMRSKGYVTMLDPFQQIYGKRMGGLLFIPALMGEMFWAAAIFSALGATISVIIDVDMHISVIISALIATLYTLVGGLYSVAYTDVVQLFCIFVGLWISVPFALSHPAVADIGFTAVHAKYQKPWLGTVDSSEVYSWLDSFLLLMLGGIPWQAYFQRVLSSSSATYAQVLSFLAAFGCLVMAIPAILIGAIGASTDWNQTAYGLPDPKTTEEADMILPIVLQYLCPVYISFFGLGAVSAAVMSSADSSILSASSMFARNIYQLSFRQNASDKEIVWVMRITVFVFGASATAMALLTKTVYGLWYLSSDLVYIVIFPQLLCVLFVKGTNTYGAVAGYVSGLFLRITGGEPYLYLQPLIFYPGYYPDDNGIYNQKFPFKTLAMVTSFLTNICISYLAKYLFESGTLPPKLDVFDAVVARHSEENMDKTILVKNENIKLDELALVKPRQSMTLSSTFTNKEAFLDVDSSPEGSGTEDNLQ

HEK293 = experiment: EBV LMP1 TES2 canonical NF-kB signalling blockers – cell-based, HEK293, luciferase, cherry-pick, dose response (AID 588343); format: functional; conditions: Homo sapiens
[6] = target: T2, Corticotropin-releasing factor receptor 2/Corticotropin-releasing factor-binding protein (Homo sapiens, UniProt P24387+Q13324); experiment: Dose Response confirmation of uHTS hits for small molecule antagonists of the CRF-binding protein and CRF-R2 receptor complex.; format: functional; conditions: read-out: IC50_Mean
T2 sequence (Q13324 whole entry): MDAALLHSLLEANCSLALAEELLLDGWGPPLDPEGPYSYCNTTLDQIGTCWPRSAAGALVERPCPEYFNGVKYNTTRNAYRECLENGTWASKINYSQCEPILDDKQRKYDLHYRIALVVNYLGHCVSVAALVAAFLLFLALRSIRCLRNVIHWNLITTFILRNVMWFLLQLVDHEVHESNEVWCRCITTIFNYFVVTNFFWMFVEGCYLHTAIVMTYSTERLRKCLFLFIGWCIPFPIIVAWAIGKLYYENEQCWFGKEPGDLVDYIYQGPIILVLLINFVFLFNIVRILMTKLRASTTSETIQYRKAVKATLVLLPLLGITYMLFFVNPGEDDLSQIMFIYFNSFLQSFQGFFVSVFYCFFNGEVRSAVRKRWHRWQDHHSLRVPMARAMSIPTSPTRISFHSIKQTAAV
T2 sequence (P24387 whole entry): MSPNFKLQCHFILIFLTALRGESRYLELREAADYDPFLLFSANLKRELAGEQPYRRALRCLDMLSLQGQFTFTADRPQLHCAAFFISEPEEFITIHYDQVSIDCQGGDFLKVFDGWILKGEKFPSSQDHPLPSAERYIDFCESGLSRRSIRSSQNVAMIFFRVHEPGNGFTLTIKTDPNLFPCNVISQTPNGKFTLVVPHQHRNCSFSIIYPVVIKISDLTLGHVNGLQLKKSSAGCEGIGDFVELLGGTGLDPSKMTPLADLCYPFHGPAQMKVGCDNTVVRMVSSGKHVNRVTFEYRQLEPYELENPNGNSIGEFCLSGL

[7] = target: T2, Corticotropin-releasing factor receptor 2/Corticotropin-releasing factor-binding protein; experiment: activators of CRF receptor 2 with binding protein – uHTS hits, confirmation (AID 602473); format: functional; conditions: read-out: EC50_Mean
SN12K1 = experiment: cells; format: functional; conditions: Homo sapiens
[8] = target: T3, Polyadenylate-binding protein 1 (Homo sapiens, UniProt P11940); experiment: MLLE domain peptide-binding blockers, IC50 – biochemical, fluorescence polarization, FITC-PAM2 peptide, dose response (AID 602259); format: functional; conditions: read-out: IC50_Mean
[9] = target: T3, Polyadenylate-binding protein 1; experiment: MLLE binding blockers, Cy5 peptide tracer – biochemical, fluorescence polarization, Cy5-PAM2 peptide, secondary, miRNA deadenylation inhibitor project, dose response (AID 602260); format: functional; conditions: read-out: IC50_Mean
[10] = blockers of HIV-1 envelope-mediated cell-cell fusion – cherry-pick, dose response (AID 652057); format: functional, cell-based
[11] = HIV-1 AD8 envelope cell-cell fusion blockers – cherry-pick, dose response (AID 652062); format: functional, cell-based;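 note: luciferase signal from cell-cell fusion driven by HIV-1 clade B AD8 Env; potency is for inhibitors of fusion seen as a drop in luminescence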
P388/ADR = experiment: cells; format: functional
[12] = target: T4, Rac GTPase-activating protein 1 (Homo sapiens, UniProt Q9H0H5); experiment: blockers of MgcRacGAP-driven Rac1 GTP hydrolysis – biochemical, ADP Hunter fluorescence, primary and confirmatory, confirmation (AID 624330); format: functional
T4 sequence (Q9H0H5 whole entry): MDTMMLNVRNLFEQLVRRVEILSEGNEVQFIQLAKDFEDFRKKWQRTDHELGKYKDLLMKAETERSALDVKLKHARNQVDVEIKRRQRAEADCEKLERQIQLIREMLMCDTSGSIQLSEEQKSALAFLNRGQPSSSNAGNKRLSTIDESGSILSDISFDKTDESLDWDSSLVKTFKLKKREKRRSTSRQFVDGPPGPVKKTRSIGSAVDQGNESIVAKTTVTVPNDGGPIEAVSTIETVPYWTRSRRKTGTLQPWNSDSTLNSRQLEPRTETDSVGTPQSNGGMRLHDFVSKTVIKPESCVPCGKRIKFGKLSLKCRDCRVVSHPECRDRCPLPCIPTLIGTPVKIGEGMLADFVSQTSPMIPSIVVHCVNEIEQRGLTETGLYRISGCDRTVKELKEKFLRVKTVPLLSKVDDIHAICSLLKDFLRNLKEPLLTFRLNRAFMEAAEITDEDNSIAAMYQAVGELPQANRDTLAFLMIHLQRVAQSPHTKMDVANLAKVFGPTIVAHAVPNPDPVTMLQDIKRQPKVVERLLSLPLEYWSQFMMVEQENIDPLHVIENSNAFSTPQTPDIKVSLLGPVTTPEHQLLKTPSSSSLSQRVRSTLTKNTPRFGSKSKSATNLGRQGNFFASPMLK

[13] = tested on: Streptococcus sp. 'group A'; experiment: Streptococcus pyogenes SK(-)GAS viability under kanamycin – luminescence, BacTiterGlo, confirmation, counter-screen for streptokinase expression inhibitor project, dose response (AID 1900); format: functional, organism-based
Streptococcus = experiment: GAS UMAA2166 growth inhibition – luminescence, BacTiterGlo, counter-screen for streptokinase expression inhibitor project, dose response (AID 1915); format: functional, organism-based;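 note: potency for reduction of bacterial viability or growth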
[14] = microbe, parasite or virus in culture; format: functional; conditions: Mycobacterium tuberculosis
Cytochrome P450 2D6 = Cytochrome P450 2D6 (Homo sapiens, UniProt P10635);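 note: CYP2D6 member of a cytochrome P450 panel assay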
[15] = Luminescence Cell-Based Dose Confirmation HTS to Identify Activators of 5'UTR Stem-Loop Driven Alpha-Synuclein mRNA Translation in H4 Neuroglioblastoma Cells. [Related pubchem assays: 1829 (Project Summary), 1814 (Primary HTS)]; format: functional
[16] = Luminescence Cell-Based Dose Response HTS to Identify Activators of Luciferase Translation or Activity in H4 […] Cells. [Related pubchem assays: 1829 (Project Summary), 1814 (Primary HTS)]; format: functional
H4 = experiment: Luminescence Cell-Based Dose Response HTS to Identify Activators of 5'UTR Stem-Loop Driven Prion Protein mRNA Translation in H4 Neuroglioblastoma Cells. [Related pubchem assays: 1829 (Project Summary), 1814 (Primary HTS)]; format: functional; conditions: Homo sapiens
Paired box protein Pax-8 = Paired box protein Pax-8 (Homo sapiens, UniProt Q06710); experiment: PAX8 transcriptional activity inhibition in RMG-I – RMG-I cells, luciferase, cherry-pick, dose response (AID 687027); format: functional, cell-based;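 note: luciferase reporter driven by Pax8 target thyroperoxidase promoter measured by SteadyGlo luminescence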
[17] = OVCAR8 cell viability loss – plate reader, dry powder samples, PAX8 project, dose response (AID 743197); format: functional, cell-based; conditions: OVCAR-8

Sequence of Genome polyprotein (P29990 2492-3391 limits assumed): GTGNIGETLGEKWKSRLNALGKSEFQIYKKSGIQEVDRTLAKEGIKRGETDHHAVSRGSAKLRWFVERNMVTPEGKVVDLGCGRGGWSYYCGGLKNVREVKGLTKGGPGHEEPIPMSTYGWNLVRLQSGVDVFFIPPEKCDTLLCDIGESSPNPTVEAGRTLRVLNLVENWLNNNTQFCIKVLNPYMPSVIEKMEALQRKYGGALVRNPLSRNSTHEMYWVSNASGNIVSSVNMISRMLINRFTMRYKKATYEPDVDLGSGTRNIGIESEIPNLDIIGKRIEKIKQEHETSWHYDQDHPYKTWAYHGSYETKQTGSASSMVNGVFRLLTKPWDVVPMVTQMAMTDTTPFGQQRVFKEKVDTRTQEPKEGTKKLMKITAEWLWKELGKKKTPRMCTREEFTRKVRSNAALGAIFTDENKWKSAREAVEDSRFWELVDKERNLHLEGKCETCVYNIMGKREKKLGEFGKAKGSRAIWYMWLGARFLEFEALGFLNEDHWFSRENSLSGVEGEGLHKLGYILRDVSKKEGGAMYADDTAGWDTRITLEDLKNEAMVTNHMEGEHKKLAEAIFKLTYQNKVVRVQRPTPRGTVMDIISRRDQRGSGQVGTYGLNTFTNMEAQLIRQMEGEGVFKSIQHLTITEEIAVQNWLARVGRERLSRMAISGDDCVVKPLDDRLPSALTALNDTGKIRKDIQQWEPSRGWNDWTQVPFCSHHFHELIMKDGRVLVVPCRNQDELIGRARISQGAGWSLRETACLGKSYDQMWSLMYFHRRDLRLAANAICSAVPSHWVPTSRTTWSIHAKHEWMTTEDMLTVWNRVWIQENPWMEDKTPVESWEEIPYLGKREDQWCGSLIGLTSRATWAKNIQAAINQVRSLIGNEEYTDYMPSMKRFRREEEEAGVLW
Sequence of Voltage-dependent T-type calcium channel subunit alpha-1H (O95180 whole entry): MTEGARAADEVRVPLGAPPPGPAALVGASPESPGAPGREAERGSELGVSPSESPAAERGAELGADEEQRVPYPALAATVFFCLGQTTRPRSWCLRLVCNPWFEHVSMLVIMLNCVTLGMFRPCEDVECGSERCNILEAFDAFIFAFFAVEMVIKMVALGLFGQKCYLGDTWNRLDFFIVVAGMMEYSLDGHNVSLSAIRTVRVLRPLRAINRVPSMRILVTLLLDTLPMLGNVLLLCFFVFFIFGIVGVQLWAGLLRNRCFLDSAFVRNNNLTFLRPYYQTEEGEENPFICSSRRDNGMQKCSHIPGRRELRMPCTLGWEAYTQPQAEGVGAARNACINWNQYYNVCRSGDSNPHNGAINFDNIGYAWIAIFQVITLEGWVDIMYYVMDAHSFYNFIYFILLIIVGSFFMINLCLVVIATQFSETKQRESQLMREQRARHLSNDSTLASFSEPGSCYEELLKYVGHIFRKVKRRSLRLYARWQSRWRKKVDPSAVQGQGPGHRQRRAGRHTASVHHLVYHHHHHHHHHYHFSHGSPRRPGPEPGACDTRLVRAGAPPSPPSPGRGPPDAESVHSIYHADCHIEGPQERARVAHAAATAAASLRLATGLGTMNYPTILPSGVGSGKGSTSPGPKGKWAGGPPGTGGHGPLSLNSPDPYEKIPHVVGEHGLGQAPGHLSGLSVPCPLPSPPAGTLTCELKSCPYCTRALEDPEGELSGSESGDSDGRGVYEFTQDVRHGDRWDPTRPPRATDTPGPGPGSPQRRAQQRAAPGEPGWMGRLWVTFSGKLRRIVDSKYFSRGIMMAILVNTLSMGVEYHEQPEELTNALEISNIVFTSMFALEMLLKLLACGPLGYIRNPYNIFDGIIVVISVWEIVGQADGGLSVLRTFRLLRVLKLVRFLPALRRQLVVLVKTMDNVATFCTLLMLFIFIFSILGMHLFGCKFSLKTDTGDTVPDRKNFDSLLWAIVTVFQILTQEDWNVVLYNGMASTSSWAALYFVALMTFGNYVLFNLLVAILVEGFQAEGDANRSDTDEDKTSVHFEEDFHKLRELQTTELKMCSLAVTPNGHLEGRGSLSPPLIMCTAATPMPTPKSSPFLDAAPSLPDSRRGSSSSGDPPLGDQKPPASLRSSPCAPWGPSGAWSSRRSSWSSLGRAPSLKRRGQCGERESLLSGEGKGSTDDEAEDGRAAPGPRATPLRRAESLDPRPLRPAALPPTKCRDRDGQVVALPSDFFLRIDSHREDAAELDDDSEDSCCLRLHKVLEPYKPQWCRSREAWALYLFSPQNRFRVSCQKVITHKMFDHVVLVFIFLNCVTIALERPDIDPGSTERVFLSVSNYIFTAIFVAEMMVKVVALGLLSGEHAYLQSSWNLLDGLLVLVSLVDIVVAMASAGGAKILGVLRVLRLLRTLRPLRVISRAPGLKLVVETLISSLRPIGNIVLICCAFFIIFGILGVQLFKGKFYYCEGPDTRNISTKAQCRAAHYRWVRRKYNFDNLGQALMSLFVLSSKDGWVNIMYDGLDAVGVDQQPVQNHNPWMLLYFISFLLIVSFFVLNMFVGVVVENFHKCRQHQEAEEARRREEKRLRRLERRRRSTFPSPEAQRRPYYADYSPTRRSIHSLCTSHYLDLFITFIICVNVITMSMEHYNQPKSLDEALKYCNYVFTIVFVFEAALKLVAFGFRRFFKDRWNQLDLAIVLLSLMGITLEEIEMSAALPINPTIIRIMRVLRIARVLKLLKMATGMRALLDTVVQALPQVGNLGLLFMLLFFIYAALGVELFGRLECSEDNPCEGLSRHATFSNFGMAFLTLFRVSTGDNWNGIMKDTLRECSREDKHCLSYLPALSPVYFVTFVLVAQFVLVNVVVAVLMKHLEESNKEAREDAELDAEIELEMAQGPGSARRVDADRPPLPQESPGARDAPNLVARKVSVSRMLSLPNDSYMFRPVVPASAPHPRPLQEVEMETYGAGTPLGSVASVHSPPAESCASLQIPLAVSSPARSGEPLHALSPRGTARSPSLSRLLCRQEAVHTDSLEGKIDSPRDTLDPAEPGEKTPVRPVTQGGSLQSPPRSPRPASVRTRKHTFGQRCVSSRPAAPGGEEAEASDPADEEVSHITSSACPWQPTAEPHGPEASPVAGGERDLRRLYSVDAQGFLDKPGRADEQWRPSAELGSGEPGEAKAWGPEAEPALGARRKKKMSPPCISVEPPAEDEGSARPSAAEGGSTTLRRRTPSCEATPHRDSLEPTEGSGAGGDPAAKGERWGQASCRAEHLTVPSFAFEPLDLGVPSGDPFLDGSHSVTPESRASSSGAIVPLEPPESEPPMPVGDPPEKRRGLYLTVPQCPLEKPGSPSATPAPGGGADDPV
Sequence of Induced myeloid leukemia cell differentiation protein Mcl-1 (Q07820 whole entry): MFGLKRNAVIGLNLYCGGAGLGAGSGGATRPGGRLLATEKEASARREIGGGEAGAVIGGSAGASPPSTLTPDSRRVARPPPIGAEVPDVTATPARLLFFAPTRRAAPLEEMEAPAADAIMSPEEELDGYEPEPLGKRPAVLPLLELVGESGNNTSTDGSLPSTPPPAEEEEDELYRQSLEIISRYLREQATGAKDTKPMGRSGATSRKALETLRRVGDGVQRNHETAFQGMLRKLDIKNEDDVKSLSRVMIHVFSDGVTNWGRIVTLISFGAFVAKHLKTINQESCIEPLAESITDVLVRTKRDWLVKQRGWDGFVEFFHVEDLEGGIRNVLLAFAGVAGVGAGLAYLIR
T3 sequence (P11940 whole entry, the tested form may be a part): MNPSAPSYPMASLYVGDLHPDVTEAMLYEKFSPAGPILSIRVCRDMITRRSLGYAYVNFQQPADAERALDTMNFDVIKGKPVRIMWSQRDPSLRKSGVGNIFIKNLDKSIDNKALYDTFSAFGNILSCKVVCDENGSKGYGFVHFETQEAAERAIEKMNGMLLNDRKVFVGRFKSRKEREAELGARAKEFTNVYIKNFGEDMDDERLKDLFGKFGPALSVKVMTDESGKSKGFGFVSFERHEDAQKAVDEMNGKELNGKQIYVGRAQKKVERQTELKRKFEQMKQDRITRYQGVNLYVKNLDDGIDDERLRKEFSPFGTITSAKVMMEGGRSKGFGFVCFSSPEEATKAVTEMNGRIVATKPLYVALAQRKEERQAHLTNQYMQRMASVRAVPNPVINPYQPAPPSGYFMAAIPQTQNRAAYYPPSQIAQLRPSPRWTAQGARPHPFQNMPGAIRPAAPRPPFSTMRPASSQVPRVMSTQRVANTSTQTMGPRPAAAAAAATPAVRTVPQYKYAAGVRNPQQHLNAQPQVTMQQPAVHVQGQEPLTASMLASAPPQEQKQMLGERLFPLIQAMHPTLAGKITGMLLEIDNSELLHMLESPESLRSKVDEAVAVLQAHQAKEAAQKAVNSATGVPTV
Sequence of Paired box protein Pax-8 (Q06710 whole entry): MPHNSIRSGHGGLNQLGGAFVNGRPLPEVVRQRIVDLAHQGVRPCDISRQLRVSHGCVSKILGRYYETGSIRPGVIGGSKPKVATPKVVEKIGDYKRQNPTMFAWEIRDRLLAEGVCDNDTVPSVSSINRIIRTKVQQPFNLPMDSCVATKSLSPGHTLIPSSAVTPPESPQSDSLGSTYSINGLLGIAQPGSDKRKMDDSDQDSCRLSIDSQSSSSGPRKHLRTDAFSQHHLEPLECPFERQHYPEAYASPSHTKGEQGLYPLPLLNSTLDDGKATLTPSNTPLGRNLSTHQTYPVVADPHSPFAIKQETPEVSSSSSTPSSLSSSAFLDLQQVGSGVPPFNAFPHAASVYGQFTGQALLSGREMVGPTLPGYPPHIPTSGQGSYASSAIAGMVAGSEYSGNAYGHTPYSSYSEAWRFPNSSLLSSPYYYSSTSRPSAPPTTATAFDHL

NC(=O)c1nn(CC(=O)Nc2ccc3c(c2)OCO3)cc1[N+](=O)[O-]
IC50 [1]: 15.3 µM (not active)

CS(=O)(=O)N(CC(=O)N1CCN(c2ccccc2)CC1)c1ccc(Cl)c(C(F)(F)F)c1
EC50 [2]: 5.13 µM (active)

COc1ccccc1NS(=O)(=O)c1ccc(N/N=C/c2ccccc2OCC(=O)O)c([N+](=O)[O-])c1
IC50 (Genome polyprotein): 56.5 µM (active)

O=C(Cn1ncc2c3ccccc3n(Cc3ccccc3F)c2c1=O)NCCN1CCOCC1
EC50 (cells [3]): > 350 µM (not active) | EC50 (cells [4]): > 350 µM (not active) | IC50 [5]: 12 µM (active)

Cc1nn(Cc2ccccc2)c(C)c1NC(=O)c1cc(-c2cccs2)on1
EC50 [2]: 2.71 µM (active)

Oc1nncc(N/N=C/C=C/c2ccccc2)n1
AC50 (HEK293): 7.38 µM (active) | IC50 [6]: > 47.1 µM (inactive) | EC50 [7]: > 53 µM (inactive)

COc1cc(C(=S)N2CCOCC2)cc(OC)c1OC(=O)c1ccc(F)cc1
AC50 (HEK293): > 350 µM (inactive)

CCOC(=O)c1cc(Cl)ccc1OC(N)=O
GI50 (SN12K1): > 100 µM (inactive)

Cc1ccc(-n2c(Cc3cccn3C)nnc2SCC(=O)NCc2ccc3c(c2)OCO3)cc1
EC50 [2]: 1.31 µM (active)

CN(C)c1ccc(CC(=O)c2nc3ccccc3s2)cc1
IC50 [1]: 2.73 µM (active)

CCc1ccc(OS(=O)(=O)c2cn(C)c(=O)n(C)c2=O)cc1
IC50 [8]: > 66 µM (inactive) | IC50 [9]: > 66 µM (inactive)

Cc1ccc(S(=O)(=O)N(C)C[C@@H]2Oc3ncc(-c4cc5ccccc5o4)cc3C(=O)N([C@H](C)CO)C[C@@H]2C)cc1
AC50 [10]: 17.3 µM (active) | AC50 [11]: 36.2 µM (active)

C=C1CC2CC[C@@]34C[C@H]5O[C@@H]6C(O[C@H]7CC[C@H](CC(=O)OC8[C@H](C)C9OC%10C[C@]%11(C[C@@H]%12O[C@]%13(C[C@H](C)[C@@H]%14O[C@H]([C@H](O)C[C@H](O)CO)C[C@@H]%14O%13)C[C@H](C)[C@@H]%12O%11)OC%10CC9O[C@H]8C[C@H]8O[C@H](CC[C@@H]1O2)C[C@@H](C)C8=C)O[C@H]7[C@@H]6O3)[C@@H]5O4 (stereo partly specified)
GI50 (P388/ADR; Mus musculus, P388/ADR): 0.000255 µM (active)

CCOc1ccc(N2C(=O)C(Cl)=C(N3CCOCC3)C2=O)cc1
IC50 (Genome polyprotein): 29.4 µM (active)

CC1CCCCC1NC(=O)c1ccc(S(=O)(=O)N2CCCC2)cc1 (stereo unspecified)
IC50 [5]: 13.2 µM (active)

COc1cc(/C=C2\C(=O)N(c3cccc(C(=O)O)c3)N=C2C)ccc1OCc1ccccc1
IC50 (Genome polyprotein): 7.99 µM (active) | IC50 [12]: 43.9 µM (active)

CC(C)C(=O)Nc1ccc(C(=O)N/N=C/c2cc(Br)cc(Br)c2O)cc1
AC50 (HEK293): 16.7 µM (active) | EC50 [13]: 1.65 µM (active) | EC50 (Streptococcus): 2.04 µM (active)

O=C(O)CCCN1C(=O)C(O)=C(C(=O)c2ccc(Cl)cc2)C1c1ccccc1 (stereo unspecified)
IC50 [8]: > 66 µM (inactive) | IC50 [9]: > 66 µM (inactive)

CN(CCC(=O)c1ccccc1)CCC(=O)c1ccccc1
IC50 [8]: > 66 µM (inactive) | IC50 [9]: > 66 µM (inactive)

O=C(C1CCCN(c2ncnc3c2nc2n3CCCCC2)C1)N1CCN(c2ccc(Cl)cc2)CC1 (stereo unspecified)
CC50 [14]: > 40 µM (active) | IC50 [5]: 4.57 µM (active)

CCN(CC)CC[n+]1ccc2c(C)c3[nH]c4ccccc4c3c(C)c2c1
AC50 (Cytochrome P450 2D6): 3.16 µM (inconclusive) | GI50 (SN12K1): 0.124 µM (active) | GI50 (P388/ADR): 19.1 µM (inactive)

Nc1cc(Nc2ccc(Br)cc2)nc(N)n1
IC50 [8]: 55.4 µM (inactive) | EC50 [15]: > 120 µM (not active) | EC50 [16]: 17.4 µM (active) | IC50 [9]: > 66 µM (inactive) | EC50 (H4): 11.3 µM (active)

COc1cccc2c(S)c(CCC(C)=O)c(C)nc12
IC50 [1]: < 0.4 µM (active)

Cc1ccc(S(=O)(=O)Nc2ccc3c(c2)C(=O)N([C@@H](C)CO)C[C@H](C)[C@@H](CN(C)Cc2ccc(Cl)c(Cl)c2)OCCCC[C@@H](C)O3)cc1
AC50 (Paired box protein Pax-8): 5.22 µM (active) | AC50 [17]: > 70 µM (inactive)

Cc1ccc(N2C(S)=NC3c4cc(Cl)ccc4OC2(C)C3C(=O)N(C)C)cc1 (stereo unspecified)
IC50 [8]: > 66 µM (inactive) | IC50 [9]: > 66 µM (inactive)

COc1ccc(OCC(=O)Nc2nnc(-c3ccco3)s2)cc1
IC50 [1]: 2.82 µM (active)
